One series concerns brain lysate proteins. Nature of the series: Competition of X-Phe photoprobe-labeled brain proteins, quantitative shotgun proteomics. Type of series: binding, mouse. To be noted: 100 μM photoprobe; 50-fold excess competitor. As for the experimental part: Shotgun proteomics of X-Phe photoprobe-labeled proteins. Brains from wild type C57BL/6J mice were harvested and homogenized using a bead blaster in PBS. Brain homogenate was centrifuged (15,000 rpm, 10 min) to yield the cytosolic supernatant and membrane pellet fractions. The cytosolic fraction was transferred to a new eppie and centrifuged again (15,000 rpm, 10 min). This process was repeated 4 times until no pellet was present after centrifugation. The membrane pellet was washed with 1 ml PBS and centrifuged (15,000 rpm, 10 min); this step was also repeated 4 times to remove any cytosolic protein contamination. After the centrifugation steps, the membrane pellet was re-suspended in PBS and sonicated. For competition experiments, brain lysate was normalized to 2 mg/ml in PBS and incubated with competitors at the indicated concentrations at room temperature for 30 minutes. 100 μM of the photoprobe was added and the reactions incubated on ice for 10 minutes protected from light. Reactions were then put under UV for 1 min on a UV Stratalinker. A biotin click reaction was performed by adding the following reagents to the indicated final concentrations: […], 1 mM CuSO4, 1 mM TCEP (freshly prepared), 30 μM Biotin-N3. Reactions were allowed to proceed for 1 hour at room temp, protected from light, and while rotating. The following prep was adapted from Niphakis et al. 2015. To each reaction, the following solvents were added in order, 4 ml cold methanol, 1 ml cold chloroform, 2 ml cold PBS. The mixture was vortexed well and centrifuged (4,600×g, 15 min, 4° C.). After centrifugation the organic and aqueous layers were removed without disruption of the protein disc. The protein disc was washed with a cold 1:1 mixture of methanol:chloroform 3 times. After the final wash, the protein disc was re-suspended in a 4:1 mixture of methanol:chloroform and sonicated. The insoluble protein was pelleted by centrifugation (4,600×g, 15 min, 4 C) and the pellet re-suspended in freshly prepared 500 μl of 6 M urea in PBS. 20 μl of 10% (w/v) SDS was added to the solution. The solution was then warmed in a 37 C water bath for 10 min to help dissolve poorly soluble protein. A streptavidin pulldown was the performed on the protein mixture. 250 μl of streptavidin beads were washed 3 times with 1 ml PBS. Protein samples were diluted with 5.5 ml of 0.25% SDS in PBS and incubated with streptavidin beads for 1.5 hr at room temperature. Following incubation, beads were washed 5 times each with 0.25% SDS in PBS, then PBS, then lastly with ultra-pure water Steptavidin beads were suspended in 150 μL resuspension buffer (1 M urea, 50 mM Tris-HCl, pH 8). Proteins were digested with 3 μg of trypsin for 4 hours. Digested peptides were reduced with 5 mM TCEP for 10 minutes. Cys residues were alkylated using 15 mM iodoacetimide (IAA) for 20 minutes. Finally, excess IAA was quenched with 10 mM DTT. Acidified digested peptides were desalted over C18 StageTips [PMID: 12585499]. Peptides were then eluted with 80% acetonitrile, 0.1% TFA and dried in a speedvac. Dried samples were reconstituted with 200 mM EPPS buffer, pH 8.0, and labelled with TMT reagents (Thermo Fisher Scientific). Following incubation at room temperature for 2 h, the reactions were quenched with hydroxylamine to a final concentration of 0.5% (v/v). […]

Series [1] concerns diet-induced obese (DIO) mice. Nature of the series: Acute administration in DIO mice in metabolic chambers. Type of series: in vivo, mouse. Conditions: 50 mg/kg IP, single. As for the experimental part: (§1) General animal information. Animal experiments were performed according to procedure approved by the Stanford University Administrative Panel on Laboratory Animal Care (APLAC). Mice were maintained in 12-hr light-dark cycles at 22° C. and ~50% relative humidity and fed a standard irradiated rodent chow diet. Where indicated, high-fat diet (D12492, Research Diets 60% kcal from fat) and ketogenic diet (D06040601, Research Diets, 80% kcal fat/15% kcal protein/5% kcal carbohydrate) was used. Male C57BL/6J (stock no. 000664) and male C57BL/6J DIO mice (stock no. 380050) were purchased from Jackson Laboratory. Male C57BL/6NCrl (stock no. 027) mice were purchased from Charles River Laboratory. Whole body CNDP2-KO mice (catalog number, C57BL/6NCrl-Cndp2em1 (IMPC) Mbp/Mmucd, RRID: MMRRC_043492-UCD) were obtained from the Mutant Mouse Regional Resource Center, a NCRR-NIH funded strain repository. For in vivo injection of mice with metabolites, compounds were dissolved in 18:1:1 (by volume) of saline/Kolliphor EL (Sigma Aldrich)/DMSO. Compounds were administered to mice daily via intraperitoneal injections at 5 μl/g body weight at the indicated doses. For all injection experiments, mice were mock injected with the vehicle for 3-5 days until body weights have stabilized. Sample sizes were determined on the basis of previous experiments using similar methodologies. For metabolite administration experiments, mice were randomly assigned to treatment groups. Experimenters were not blinded to groups.

The next series relates to DIO mice. Nature of the series: Plasma AST, ALT, TG, HDL, LDL in DIO mice after chronic treatment. It counts as in vivo, mouse. To be noted: 50 mg/kg/day IP; 14 days. As for the experimental part: as §1

Consider one compound from patent US20260325473A1, “N-Beta-Hydroxybutyryl-Amino Acids and Related Compositions and Methods” (The Board of Trustees of the Leland Stanford Junior …, priority 2023, published 2026).

As for `CC(O)CC(=O)N[C@@H](Cc1ccccc1)C(=O)O` (some centres unmarked) [BHB-Phe, N-betahydroxybutyryl-phenylalanine], in the series with brain lysate proteins, the “competition of X-Phe photoprobe-labeled proteins” value is greater than 80%; the “number of brain proteins crosslinked by X-Phe photoprobe and >80% competed by Keto-Phe” value was determined as 32 proteins. For the same compound, in series [1], the “food intake (metabolic chambers)” value is reported as “reduced food intake”. In series [1] (over 10 h), the ambulatory movement result was “without affecting movement”; the “energy expenditure: carbon dioxide production (VCO2)” value was “without affecting movement, oxygen consumption or CO^2 production”; the “energy expenditure: oxygen consumption (VO2)” value is “without affecting movement, oxygen consumption”; the “reduction of food intake” value is ~ 30%. In addition, the “respiratory exchange ratio (RER)” value in series [1] (over 10 h) was “reduction in respiratory exchange ratio (RER)”. In series [1] (over 10 h, listed as Keto-Phe), the ambulatory movement result was “no effects”, the “energy expenditure: carbon dioxide production (VCO2)” value is on record as “no effects”, the “energy expenditure: oxygen consumption (VO2)” value is given as “no effects” and the “respiratory exchange ratio (RER)” value is “no effects”. In addition, in the series on DIO mice, the “plasma ALT” value is “reductions”, the “plasma AST” value is listed as “reductions”, the “plasma HDL-cholesterol” value is given as “no changes” and the “plasma LDL-cholesterol” value is “no changes”. Besides, in the series with DIO mice, the “plasma total triglycerides (TG)” value is on record as “reductions”.
